What all share (assay): EMSA
For orientation: In EMSA bound probe runs differently from free probe, usually more slowly.

For experiment [1], the target named is Cyclin-dependent kinase 2 (Homo sapiens, UniProt P24941). Here is the method:
(§1) First, 4.5 μL of 2× kinase solution was added to 0.05 μL of compound (maximum concentration 1.8 mM in 90% DMSO and 10% H2O). To allow for possible slow association, plates with type II inhibitors were incubated for 60 min at 30 °C. The assay started after the addition of 4.5 μL of 2× peptide with ATP and was run for 60 min at 30 °C, after which 16 μL of stop solution was added (100 mM HEPES pH 7.5, 5% DMSO, 0.1% coating reagent (Caliper Lifescience) 10 mM EDTA, pH 8.0, 0.015% BRIJ35). All reactions were performed in 50 mM HEPES, pH 7.5, 1 mM DTT, 0.02% Tween 20, 0.02% BSA, 10 mM betaglycerophosphate, 0.01 mM Na3VO4, 0.6% DMSO, and 2 μM peptide.

For experiment [2], the target named is Cyclin-dependent kinase 2 [A144C] (Homo sapiens, UniProt P24941, A144C). How it is done:
as §1

In experiment [3] the target is Cyclin-dependent kinase 2 [A144G] (Homo sapiens, UniProt P24941, A144G). How it is done:
as §1

Experiment [4] concerns the target Cyclin-dependent kinase 2 [C118I] (Homo sapiens, UniProt P24941, C118I). Here is the method: as §1
Experiment [5] addresses Cyclin-dependent kinase 2 [C118L,A144C] (Homo sapiens, UniProt P24941, A144C/C118L). How it is done: as §1
Experiment [6] concerns the target Cyclin-dependent kinase 2 [C118L] (Homo sapiens, UniProt P24941, C118L). Here is the method: as §1
In experiment [7] the target is Cyclin-dependent kinase 2 [F80M] (Homo sapiens, UniProt P24941, F80M). Here is the method:
as §1

Experiment [8] deals with Cyclin-dependent kinase 2 [F80T] (Homo sapiens, UniProt P24941, F80T). Here is the method:
as §1

SMILES strings stand for the structures.

What is called IC50 is the midpoint of a concentration-inhibition curve. Regarding `CC(=O)Nc1cc(Oc2ccc3c(C(=O)Nc4ccc(CN5CCN(C)CC5)c(C(F)(F)F)c4)cccc3c2)ncn1` [K03859 (2)], the IC50 in experiment [1], in experiment [2], in experiment [3], in experiment [4], in experiment [5] and in experiment [6] was > 10 µM in each case. For the same compound, the figures for the IC50 in experiment [7] and in experiment [8] were > 10 µM and 7.1 µM, respectively.

These data come from BindingDB's records for doi:10.1021/acschembio.5b00398 (University of Oxford, 2015).
